Measurements taken from patent US20240124439A1, “Pyrido[2,3-D]Imidazole Derivatives and Their Use As Inhibitors of ITK for the Treatment of Skin Disease” (Pfizer Inc., priority 2020, published 2024).

What was measured:
[1] = molecular target: IL-2-Inducible T-Cell Kinase (ITK) (Homo sapiens (Human), UniProt Q08881); assay: ITK enzyme assay (IL-2-inducible T-cell kinase activity); type: biochemical; settings: geometric mean of count n
How it was run: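 Full-length N-Flag/C-His human ITK, pre-incubated 30 min at RT with compound. Reaction in HEPES pH 7.5 buffer with MgCl2, glutathione, gelatin and Brij-35, started with BTK peptide substrate, 60 min at RT. EDTA stop, PT66/APC TR-FRET detection overnight; IC50 fitted by four-parameter logistic.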

[2] = tested on: activated CD4+ human T-cells (IL-2); assay: IL-2 inhibition in supernatants from activated CD4+ human T-cells (cisbio HTRF); type: cell-based; settings: T-cell; CD3/CD28-activated CD4+ human T cells, ImmunoCult stimulation 20 to 24 hrs; geometric mean of count n
How it was run: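 Primary human CD4+ T cells activated with CD3/CD28 for 3 days and expanded to 7-9 days total, plated at 30,000 cells/well. Cells preincubated 15 min with compound, then stimulated with ImmunoCult (1:50 final) for 20-24 h at 37° C. Supernatant IL-2 measured by HTRF (665/615 nm); IC50 from four-parameter logistic fit.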

Chain of IL-2-Inducible T-Cell Kinase (ITK) (Q08881 whole entry): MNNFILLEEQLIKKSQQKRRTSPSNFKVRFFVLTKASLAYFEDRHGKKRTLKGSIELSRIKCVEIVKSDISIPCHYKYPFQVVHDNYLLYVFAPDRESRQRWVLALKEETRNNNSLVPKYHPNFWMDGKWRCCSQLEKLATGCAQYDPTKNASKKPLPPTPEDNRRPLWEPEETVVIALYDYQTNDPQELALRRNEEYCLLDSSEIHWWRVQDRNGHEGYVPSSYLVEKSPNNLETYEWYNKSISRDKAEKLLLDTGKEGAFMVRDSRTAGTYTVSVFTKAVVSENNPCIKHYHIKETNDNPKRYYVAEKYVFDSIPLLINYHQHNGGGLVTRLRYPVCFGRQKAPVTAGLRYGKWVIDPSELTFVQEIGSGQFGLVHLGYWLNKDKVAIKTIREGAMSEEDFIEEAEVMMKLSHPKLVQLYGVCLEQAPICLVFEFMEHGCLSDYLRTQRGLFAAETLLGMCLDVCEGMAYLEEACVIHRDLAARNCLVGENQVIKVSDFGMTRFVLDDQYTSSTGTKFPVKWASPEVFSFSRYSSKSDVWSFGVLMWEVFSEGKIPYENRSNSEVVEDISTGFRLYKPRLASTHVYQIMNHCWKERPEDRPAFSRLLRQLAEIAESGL

Structure (SMILES) | IC50 [1] [nM] | IC50 [2] [nM]
CN(C(=O)C1(C)CCOCC1)c1cnc2nc(-c3n[nH]c4c3C[C@@H]3C[C@]3(C)C4)[nH]c2c1 [Example 70, N,4-Dimethyl-N-(2-((4aS,5aR)-5a-methyl-1,4,4a,5,5a,6-hexahydrocyclopropa[f]indazol-3-yl)-1H-imidazo[4,5-b]pyridin-6-yl)tetrahydro-2H-pyran-4-carboxamide] | 93 | 462
CCCC(=O)N(C)c1cnc2nc(-c3n[nH]c4c3C[C@@H]3C[C@]3(C)C4)[nH]c2c1 [Example 71, N-Methyl-N-(2-((4aS,5aR)-5a-methyl-1,4,4a,5,5a,6-hexahydrocyclopropa[f]indazol-3-yl)-1H-imidazo[4,5-b]pyridin-6-yl)butyramide] | 42 | 313
CC(C)CC(=O)N(C)c1cnc2nc(-c3n[nH]c4c3C[C@@H]3C[C@]3(C)C4)[nH]c2c1 [Example 72, N,3-Dimethyl-N-(2-((4aS,5aR)-5a-methyl-1,4,4a,5,5a,6-hexahydrocyclopropa[f]indazol-3-yl)-1H-imidazo[4,5-b]pyridin-6-yl)butanamide] | 39 | 248
CN(C(=O)CC(C)(C)C)c1cnc2nc(-c3n[nH]c4c3C[C@@H]3C[C@]3(C)C4)[nH]c2c1 [Example 73, N,3,3-Trimethyl-N-(2-((4aS,5aR)-5a-methyl-1,4,4a,5,5a,6-hexahydrocyclopropa[f]indazol-3-yl)-1H-imidazo[4,5-b]pyridin-6-yl)butanamide] | 57 | 498
CC(C)CCC(=O)N(C)c1cnc2nc(-c3n[nH]c4c3C[C@@H]3C[C@]3(C)C4)[nH]c2c1 [Example 74, N,4-Dimethyl-N-(2-((4aS,5aR)-5a-methyl-1,4,4a,5,5a,6-hexahydrocyclopropa[f]indazol-3-yl)-1H-imidazo[4,5-b]pyridin-6-yl)pentanamide] | 50 | 311
CC(=O)N(CC(=O)N(C)c1cnc2nc(-c3n[nH]c4c3C[C@@H]3C[C@]3(C)C4)[nH]c2c1)C(C)C [Example 75, 2-(N-Isopropylacetamido)-N-methyl-N-(2-((4aS,5aR)-5a-methyl-1,4,4a,5,5a,6-hexahydrocyclopropa[f]indazol-3-yl)-1H-imidazo[4,5-b]pyridin-6-yl)acetamide] | 57 | 862
CCC(C)CC(=O)N(C)c1cnc2nc(-c3n[nH]c4c3C[C@@H]3C[C@]3(C)C4)[nH]c2c1 (stereo partly drawn) [Example 76, N,3-Dimethyl-N-(2-((4aS,5aR)-5a-methyl-1,4,4a,5,5a,6-hexahydrocyclopropa[f]indazol-3-yl)-1H-imidazo[4,5-b]pyridin-6-yl)pentanamide] | 51 | 389
CN(C(=O)CC1CCC1)c1cnc2nc(-c3n[nH]c4c3C[C@@H]3C[C@]3(C)C4)[nH]c2c1 [Example 77, 2-Cyclobutyl-N-methyl-N-(2-((4aS,5aR)-5a-methyl-1,4,4a,5,5a,6-hexahydrocyclopropa[f]indazol-3-yl)-1H-imidazo[4,5-b]pyridin-6-yl)acetamide] | 27 | 247
CC(C)C(=O)N(C)CC(=O)N(C)c1cnc2nc(-c3n[nH]c4c3C[C@@H]3C[C@]3(C)C4)[nH]c2c1 [Example 78, N-Methyl-N-(2-(methyl(2-((4aS,5aR)-5a-methyl-1,4,4a,5,5a,6-hexahydrocyclopropa[f]indazol-3-yl)-1H-imidazo[4,5-b]pyridin-6-yl)amino)-2-oxoethyl)isobutyramide] | 35 | 552
CN(C(=O)CN1CCCCC1=O)c1cnc2nc(-c3n[nH]c4c3C[C@@H]3C[C@]3(C)C4)[nH]c2c1 [Example 79, N-Methyl-N-(2-((4aS,5aR)-5a-methyl-1,4,4a,5,5a,6-hexahydrocyclopropa[f]indazol-3-yl)-1H-imidazo[4,5-b]pyridin-6-yl)-2-(2-oxopiperidin-1-yl)acetamide] | 43 | 1590
CN(C(=O)C1CCCC1)c1cnc2nc(-c3n[nH]c4c3C[C@@H]3C[C@]3(C)C4)[nH]c2c1 [Example 81, N-Methyl-N-(2-((4aS,5aR)-5a-methyl-1,4,4a,5,5a,6-hexahydrocyclopropa[f]indazol-3-yl)-1H-imidazo[4,5-b]pyridin-6-yl)cyclopentanecarboxamide] | 21 | 182
CCC(CC)C(=O)N(C)c1cnc2nc(-c3n[nH]c4c3C[C@@H]3C[C@]3(C)C4)[nH]c2c1 [Example 82, 2-Ethyl-N-methyl-N-(2-((4aS,5aR)-5a-methyl-1,4,4a,5,5a,6-hexahydrocyclopropa[f]indazol-3-yl)-1H-imidazo[4,5-b]pyridin-6-yl)butanamide] | 20 | 176
CC[C@H](C)C(=O)N(C)c1cnc2nc(-c3n[nH]c4c3C[C@@H]3C[C@]3(C)C4)[nH]c2c1 [Example 83, (S)-N,2-Dimethyl-N-(2-((4aS,5aR)-5a-methyl-1,4,4a,5,5a,6-hexahydrocyclopropa[f]indazol-3-yl)-1H-imidazo[4,5-b]pyridin-6-yl)butanamide] | 47 | 371
CN(C(=O)C12CC(C1)C2)c1cnc2nc(-c3n[nH]c4c3C[C@@H]3C[C@]3(C)C4)[nH]c2c1 [Example 85, N-Methyl-N-(2-((4aS,5aR)-5a-methyl-1,4,4a,5,5a,6-hexahydrocyclopropa[f]indazol-3-yl)-1H-imidazo[4,5-b]pyridin-6-yl)bicyclo[1.1.1]pentane-1-carboxamide] | 91 | 1220
CC[C@@H](C)C(=O)N(C)c1cnc2nc(-c3n[nH]c4c3C[C@@H]3C[C@]3(C)C4)[nH]c2c1 [Example 87, (R)-N,2-Dimethyl-N-(2-((4aS,5aR)-5a-methyl-1,4,4a,5,5a,6-hexahydrocyclopropa[f]indazol-3-yl)-1H-imidazo[4,5-b]pyridin-6-yl)butanamide] | 26 | 246
CCC(C)(C)C(=O)N(C)c1cnc2nc(-c3n[nH]c4c3C[C@@H]3C[C@]3(C)C4)[nH]c2c1 [Example 88, N,2,2-Trimethyl-N-(2-((4aS,5aR)-5a-methyl-1,4,4a,5,5a,6-hexahydrocyclopropa[f]indazol-3-yl)-1H-imidazo[4,5-b]pyridin-6-yl)butanamide] | 118 | 808
CN(c1cnc2nc(-c3n[nH]c4c3C[C@@H]3C[C@]3(C)C4)[nH]c2c1)C(=O)[C@H]1C[C@@H](C)C1 [Example 89, (1s,3R)-N,3-Dimethyl-N-(2-((4aS,5aR)-5a-methyl-1,4,4a,5,5a,6-hexahydrocyclopropa[f]indazol-3-yl)-1H-imidazo[4,5-b]pyridin-6-yl)cyclobutane-1-carboxamide] | 27 | 324
CN(C(=O)C1CCOCC1)c1cnc2[nH]c(-c3n[nH]c4c3CCC(C)(C)C4)nc2c1 [Example 90, N-(2-(6,6-Dimethyl-4,5,6,7-tetrahydro-1H-indazol-3-yl)-3H-imidazo[4,5-b]pyridin-6-yl)-N-methyltetrahydro-2H-pyran-4-carboxamide] | 545 | 892
CN(C(=O)CC(C)(C)C)c1cnc2[nH]c(-c3n[nH]c4c3CCC(C)(C)C4)nc2c1 [Example 91, N-(2-(6,6-Dimethyl-4,5,6,7-tetrahydro-1H-indazol-3-yl)-3H-imidazo[4,5-b]pyridin-6-yl)-N,3,3-trimethylbutanamide] | 144 | 384
CC[C@H](C)C(=O)N(C)c1cnc2[nH]c(-c3n[nH]c4c3CCC(C)(C)C4)nc2c1 [Example 92, (S)-N-(2-(6,6-Dimethyl-4,5,6,7-tetrahydro-1H-indazol-3-yl)-3H-imidazo[4,5-b]pyridin-6-yl)-N,2-dimethylbutanamide] | 698 | > 10000
CCC1(C(=O)N(C)c2cnc3[nH]c(-c4n[nH]c5c4CCC(C)(C)C5)nc3c2)CCOCC1 [Example 94, N-(2-(6,6-Dimethyl-4,5,6,7-tetrahydro-1H-indazol-3-yl)-3H-imidazo[4,5-b]pyridin-6-yl)-4-ethyl-N-methyltetrahydro-2H-pyran-4-carboxamide] | 307 | 3170
CN(C(=O)C1(F)CCOCC1)c1cnc2[nH]c(-c3n[nH]c4c3CCC(C)(C)C4)nc2c1 [Example 98, N-(2-(6,6-Dimethyl-4,5,6,7-tetrahydro-1H-indazol-3-yl)-3H-imidazo[4,5-b]pyridin-6-yl)-4-fluoro-N-methyltetrahydro-2H-pyran-4-carboxamide] | 122 | 1310
CN(C(=O)CC(C)(C)C(F)F)c1cnc2[nH]c(-c3n[nH]c4c3CCC(C)(C)C4)nc2c1 [Example 99, N-(2-(6,6-Dimethyl-4,5,6,7-tetrahydro-1H-indazol-3-yl)-3H-imidazo[4,5-b]pyridin-6-yl)-4,4-difluoro-N,3,3-trimethylbutanamide] | 59 | 233
CN(C(=O)C1(C)CC(F)(F)C1)c1cnc2[nH]c(-c3n[nH]c4c3CCC(C)(C)C4)nc2c1 [Example 100, N-(2-(6,6-Dimethyl-4,5,6,7-tetrahydro-1H-indazol-3-yl)-3H-imidazo[4,5-b]pyridin-6-yl)-3,3-difluoro-N,1-dimethylcyclobutane-1-carboxamide] | 104 | 682
CN(C(=O)C1(F)CCCCC1)c1cnc2[nH]c(-c3n[nH]c4c3CCC(C)(C)C4)nc2c1 [Example 101, N-(2-(6,6-Dimethyl-4,5,6,7-tetrahydro-1H-indazol-3-yl)-3H-imidazo[4,5-b]pyridin-6-yl)-1-fluoro-N-methylcyclohexane-1-carboxamide] | 48 | 464
